Laboratory results: ChEMBL document CHEMBL3091427, “The discovery of the benzazepine class of histamine H3 receptor antagonists” (Bioorg Med Chem Lett, 2013)

Key:
Histamine H1 receptor = Histamine H1 receptor (Homo sapiens, UniProt P35367); experiment: Antagonist activity at human recombinant histamine H1 receptor expressed in CHO cells assessed as inhibition of histamine-induced effect by FLIPR assay; format: cell-based
Histamine H3 receptor [1] = target: Histamine H3 receptor (Homo sapiens, UniProt Q9Y5N1); experiment: Antagonist activity at human histamine H3 receptor expressed in CHOK1 cells assessed as inhibition of GTPgammaS binding by scintillation proximity assay; format: functional, cell-based, CHO-K1
Liver microsome [2] = experiment: Intrinsic clearance in human liver microsomes; format: ADME
Rattus norvegicus [3] = experiment: Reversal of RAMH-induced dipsogenia in Lister Hooded rat at 3 mg/kg, po; format: functional
Liver microsome [4] = experiment: Intrinsic clearance in rat liver microsomes; format: ADME
Cytochrome P450 2D6 = Cytochrome P450 2D6 (Homo sapiens, UniProt P10635); experiment: Inhibition of human CYP2D6; format: ADME
Albumin = Albumin (Homo sapiens, UniProt P02768); experiment: Binding affinity to human serum albumin; format: ADME; conditions: isolated protein
Rattus norvegicus [5] = experiment: Reversal of RAMH-induced dipsogenia in Lister Hooded rat at 10 mg/kg, ip; format: functional; conditions: route intraperitoneal
[6] = Terminal half life in iv dosed rat after 0.5 hrs; format: ADME, organism-based; conditions: in vivo, read-out: beta t1/2 (converted)
[7] = Volume of distribution at steady state in iv dosed rat after 1 hr; format: ADME, organism-based; conditions: in vivo, read-out: Vdss
[8] = Dissociation constant, pKa of the compound; format: physicochemical
[9] = Total blood clearance in iv dosed rat after 1 hr; format: ADME, organism-based; conditions: whole blood
[10] = Ratio of drug level in brain to blood in Lister Hooded rat at 3 mg/kg, po after 2 hrs; format: ADME, organism-based; parameters: dose 3 mg/kg, route oral
[11] = Drug level in Lister Hooded rat brain at 3 mg/kg, po after 2 hrs; format: ADME, organism-based; parameters: dose 3 mg/kg, route oral; conditions: read-out: Ct
Rattus norvegicus [12] = experiment: Ex vivo binding affinity to histamine H3 receptor in po dosed Lister Hooded rat; format: functional
[13] = Drug level in Lister Hooded rat blood at 3 mg/kg, po after 2 hrs; format: ADME, organism-based; parameters: dose 3 mg/kg, route oral; conditions: whole blood, read-out: Ct
Histamine H3 receptor [14] = target: Histamine H3 receptor (Rattus norvegicus, UniProt Q9QYN8); experiment: Displacement of [3H]R-alpha-methylhistamine from histamine H3 receptor in rat cerebral cortical membranes after 45 mins by liquid scintillation spectrometry; format: cell membranes
hERG (KCNH2) = hERG (KCNH2) (Homo sapiens, UniProt Q12809); experiment: Inhibition of human ERG at 10 uM by patch clamp assay
[15] = Lipophilicity, log D of the compound; format: physicochemical; conditions: octanol/water

Sequence of Cytochrome P450 2D6 (P10635 whole entry): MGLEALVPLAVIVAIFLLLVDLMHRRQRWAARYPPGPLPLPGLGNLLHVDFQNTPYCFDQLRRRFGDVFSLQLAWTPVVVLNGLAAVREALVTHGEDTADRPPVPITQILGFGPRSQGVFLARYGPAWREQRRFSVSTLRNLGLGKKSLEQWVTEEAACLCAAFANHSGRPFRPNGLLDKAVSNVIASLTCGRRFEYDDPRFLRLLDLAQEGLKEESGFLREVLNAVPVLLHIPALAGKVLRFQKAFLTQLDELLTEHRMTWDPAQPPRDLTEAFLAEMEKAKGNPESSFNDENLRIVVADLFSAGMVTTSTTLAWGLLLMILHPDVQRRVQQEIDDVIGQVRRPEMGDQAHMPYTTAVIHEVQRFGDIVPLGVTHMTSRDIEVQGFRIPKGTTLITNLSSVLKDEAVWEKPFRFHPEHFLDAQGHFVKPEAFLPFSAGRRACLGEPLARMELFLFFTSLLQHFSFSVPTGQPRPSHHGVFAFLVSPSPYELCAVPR
Sequence of Albumin (P02768 whole entry): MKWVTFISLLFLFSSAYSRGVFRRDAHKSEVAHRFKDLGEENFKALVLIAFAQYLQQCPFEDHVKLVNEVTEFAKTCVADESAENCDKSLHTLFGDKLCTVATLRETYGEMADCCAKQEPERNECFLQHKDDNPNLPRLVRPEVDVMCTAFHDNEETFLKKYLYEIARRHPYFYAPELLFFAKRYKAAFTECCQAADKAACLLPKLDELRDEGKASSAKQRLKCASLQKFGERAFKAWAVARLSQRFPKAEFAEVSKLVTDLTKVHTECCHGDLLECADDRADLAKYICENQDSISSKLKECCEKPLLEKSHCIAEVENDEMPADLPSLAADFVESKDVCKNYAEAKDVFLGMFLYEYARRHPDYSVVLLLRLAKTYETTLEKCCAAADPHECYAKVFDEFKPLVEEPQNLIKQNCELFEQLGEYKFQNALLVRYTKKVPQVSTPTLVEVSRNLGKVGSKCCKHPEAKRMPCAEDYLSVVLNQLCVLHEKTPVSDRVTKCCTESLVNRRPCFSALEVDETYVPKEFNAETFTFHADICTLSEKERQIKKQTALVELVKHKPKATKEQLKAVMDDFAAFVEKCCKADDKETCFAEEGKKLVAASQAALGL
Sequence of Histamine H1 receptor (P35367 whole entry): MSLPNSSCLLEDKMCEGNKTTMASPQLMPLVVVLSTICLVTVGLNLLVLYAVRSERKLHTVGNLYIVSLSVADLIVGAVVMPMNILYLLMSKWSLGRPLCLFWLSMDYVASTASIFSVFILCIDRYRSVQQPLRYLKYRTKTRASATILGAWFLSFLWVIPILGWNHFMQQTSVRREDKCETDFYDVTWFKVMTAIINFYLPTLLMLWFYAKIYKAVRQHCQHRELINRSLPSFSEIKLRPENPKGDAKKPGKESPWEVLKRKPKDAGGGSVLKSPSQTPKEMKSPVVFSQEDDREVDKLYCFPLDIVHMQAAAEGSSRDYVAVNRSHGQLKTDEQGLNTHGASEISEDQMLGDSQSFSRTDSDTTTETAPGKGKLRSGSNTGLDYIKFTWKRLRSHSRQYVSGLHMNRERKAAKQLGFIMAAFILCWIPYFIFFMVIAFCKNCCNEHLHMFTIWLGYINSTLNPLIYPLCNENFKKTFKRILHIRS
Sequence of Histamine H3 receptor (Homo sapiens, UniProt Q9Y5N1) (Q9Y5N1 whole entry): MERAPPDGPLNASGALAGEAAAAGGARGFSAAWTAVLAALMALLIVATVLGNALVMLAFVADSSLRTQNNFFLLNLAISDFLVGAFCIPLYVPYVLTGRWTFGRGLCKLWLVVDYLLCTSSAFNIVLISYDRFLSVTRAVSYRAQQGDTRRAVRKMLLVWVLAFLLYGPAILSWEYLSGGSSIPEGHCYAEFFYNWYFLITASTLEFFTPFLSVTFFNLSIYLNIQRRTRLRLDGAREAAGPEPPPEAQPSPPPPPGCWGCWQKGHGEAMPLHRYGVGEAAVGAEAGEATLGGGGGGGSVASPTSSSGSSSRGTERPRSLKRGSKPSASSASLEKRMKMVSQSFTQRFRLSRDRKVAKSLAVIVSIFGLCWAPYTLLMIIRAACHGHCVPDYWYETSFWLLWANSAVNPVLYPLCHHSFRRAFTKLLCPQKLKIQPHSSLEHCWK
Sequence of hERG (KCNH2) (Q12809 whole entry): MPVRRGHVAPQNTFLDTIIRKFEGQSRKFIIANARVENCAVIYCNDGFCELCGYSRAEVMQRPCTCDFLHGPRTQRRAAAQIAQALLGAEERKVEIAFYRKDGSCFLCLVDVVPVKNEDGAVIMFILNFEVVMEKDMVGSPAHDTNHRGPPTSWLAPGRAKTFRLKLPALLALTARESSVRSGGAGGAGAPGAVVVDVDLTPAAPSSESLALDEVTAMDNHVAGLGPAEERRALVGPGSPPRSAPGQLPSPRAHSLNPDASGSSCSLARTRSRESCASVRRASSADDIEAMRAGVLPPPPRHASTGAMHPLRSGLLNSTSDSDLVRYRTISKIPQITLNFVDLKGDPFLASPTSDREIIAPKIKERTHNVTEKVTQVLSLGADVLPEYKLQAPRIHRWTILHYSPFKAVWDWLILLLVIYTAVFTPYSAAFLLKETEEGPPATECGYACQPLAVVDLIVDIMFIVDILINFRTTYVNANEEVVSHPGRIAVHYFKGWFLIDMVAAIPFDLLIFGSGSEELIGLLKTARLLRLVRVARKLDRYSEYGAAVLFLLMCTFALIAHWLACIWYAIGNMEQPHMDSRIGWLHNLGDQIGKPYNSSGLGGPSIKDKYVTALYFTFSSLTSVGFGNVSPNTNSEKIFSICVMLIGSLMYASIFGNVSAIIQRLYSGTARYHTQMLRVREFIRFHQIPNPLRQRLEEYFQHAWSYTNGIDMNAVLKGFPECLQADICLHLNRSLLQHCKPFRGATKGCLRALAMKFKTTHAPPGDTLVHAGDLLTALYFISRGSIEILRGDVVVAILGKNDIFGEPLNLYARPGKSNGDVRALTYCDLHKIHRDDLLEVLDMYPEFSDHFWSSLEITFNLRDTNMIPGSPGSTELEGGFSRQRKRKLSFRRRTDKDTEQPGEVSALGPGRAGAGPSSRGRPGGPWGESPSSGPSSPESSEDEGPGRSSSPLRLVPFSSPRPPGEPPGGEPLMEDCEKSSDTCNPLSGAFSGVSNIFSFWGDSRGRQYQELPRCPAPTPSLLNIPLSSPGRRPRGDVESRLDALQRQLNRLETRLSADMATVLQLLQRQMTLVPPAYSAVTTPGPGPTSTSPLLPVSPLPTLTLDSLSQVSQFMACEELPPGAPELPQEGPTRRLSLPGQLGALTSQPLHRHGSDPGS
Sequence of Histamine H3 receptor (Rattus norvegicus, UniProt Q9QYN8) (Q9QYN8 whole entry): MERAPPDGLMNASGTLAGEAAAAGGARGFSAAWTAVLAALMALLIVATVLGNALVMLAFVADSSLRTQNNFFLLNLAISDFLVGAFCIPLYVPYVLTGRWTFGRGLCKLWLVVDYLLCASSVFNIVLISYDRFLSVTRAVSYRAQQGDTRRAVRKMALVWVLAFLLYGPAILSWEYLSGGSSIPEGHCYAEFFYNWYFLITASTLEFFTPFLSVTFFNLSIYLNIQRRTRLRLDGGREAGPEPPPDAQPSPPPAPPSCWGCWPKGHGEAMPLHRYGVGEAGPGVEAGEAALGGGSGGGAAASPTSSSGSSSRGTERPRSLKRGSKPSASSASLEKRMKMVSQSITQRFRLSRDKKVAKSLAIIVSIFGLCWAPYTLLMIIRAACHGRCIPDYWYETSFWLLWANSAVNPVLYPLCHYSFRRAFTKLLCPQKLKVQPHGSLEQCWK

Ki (Histamine H3 receptor [1]) [nM] | CLH (Liver microsome [2]) [mL/min/g] | CLH (Liver microsome [4]) [mL/min/g] | SMILES | other results
10 |  |  | c1ccc(N2CCc3ccc(OCCCN4CCCCC4)cc3CC2)cc1 | Ki (Histamine H1 receptor): 1000 nM
0.794 |  |  | c1cc2c(cc1OCCN1CCCCC1)CCN(CC1CC1)CC2 | Ki (Histamine H1 receptor): > 2000 nM
0.501 | 0.8 | 2.9 | O=C(c1ccc(Cl)cc1)N1CCC(Oc2ccc3c(c2)CCN(C2CCC2)CC3)CC1 | Activity (Rattus norvegicus [3]): 89%
> 398 |  |  | FC1(F)CCN(CCCOc2ccc3c(c2)CCNCC3)CC1 | 
15.8 |  |  | c1cc2c(cc1OCCCN1CCCCC1)CCN2 | 
0.501 | 0.9 | 0.7 | c1cc2c(cc1OCC1CCNCC1)CCN(C1CCC1)CC2 | IC50 (Cytochrome P450 2D6): 19000 nM; Activity (Rattus norvegicus [3]): 44%
0.316 | 0.5 | 1.2 | c1cc2c(cc1OC1CCNCC1)CCN(C1CCC1)CC2 | 
0.501 |  |  | c1cc2c(cc1OCCCN1CCCCC1)CCN(CC1CCCO1)CC2 (centres undefined) | Ki (Histamine H1 receptor): 2000 nM
> 1000 |  |  | c1ccc(COc2ccc3c(c2)CCN(Cc2ccccc2)CC3)cc1 | 
0.794 | 0.5 | 2.9 | CS(=O)(=O)N1CCC(Oc2ccc3c(c2)CCN(C2CCC2)CC3)CC1 | IC50 (Cytochrome P450 2D6): 13000 nM; Activity (Rattus norvegicus [3]): 6%
 |  |  | O=C(c1ccc(OCCCc2cnc[nH]2)cc1)C1CC1 [CIPROXIFAN] | Ki (Histamine H1 receptor): > 2510 nM; Activity (Rattus norvegicus [3]): 100%; Activity (Albumin): 80%
0.0251 |  |  | O=C(N[C@H]1CCN(Cc2ccc(OCCCN3CCCCC3)cc2)C1)c1ccc2c(c1)OCO2 | Activity (Rattus norvegicus [5]): 78%; Ki (Histamine H1 receptor): > 2510 nM; Activity (Albumin): 96%
0.501 |  |  | c1cc2c(cc1OCCCN1CCCCC1)CCN(CC1CC1)CC2 | Ki (Histamine H1 receptor): 2000 nM
0.398 | 3.4 | 2.5 | Cn1c(=O)ccc2cc(COc3ccc4c(c3)CCN(C3CCC3)CC4)ccc21 | IC50 (Cytochrome P450 2D6): 4200 nM
1 | 0.9 | 1.1 | O=C(N1CCOCC1)N1CCC(Oc2ccc3c(c2)CCN(C2CCC2)CC3)CC1 | half-life [6]: 1.2 h; Vd [7]: 4.6 L/kg; pKa [8]: 9.2; clearance [9]: 63 mL/min/kg; Kp at 2 h [10]: 1.1; concentration at 2 h [11]: 530 nM; ED50 (Rattus norvegicus [12]): 2.2 mg/kg; Activity (Rattus norvegicus [3]): 100%; concentration at 2 h [13]: 470 nM; Ki (Histamine H3 receptor [14]): 12.6 nM; inhibition at 10 µM (hERG (KCNH2)): < 30%; Activity (Albumin): 49%; logD [15]: 2.2
15.8 |  |  | CC(=O)N1CCc2ccc(OCCCN3CCCCC3)cc2CC1 | 
10 |  |  | c1ccc(COc2ccc3c(c2)CCN(C2CCCCC2)CC3)cc1 | 
1.58 | 1.2 | 3.5 | Cc1cc(C(=O)N2CCC(Oc3ccc4c(c3)CCN(C3CCC3)CC4)CC2)no1 | IC50 (Cytochrome P450 2D6): 43000 nM; Activity (Rattus norvegicus [3]): 11%

SMILES | Ki (Histamine H3 receptor [1]) [nM] | CLH (Liver microsome [2]) [mL/min/g] | CLH (Liver microsome [4]) [mL/min/g] | other results
CC(C)N1CCc2ccc(OCc3ccccc3)cc2CC1 | 20 |  |  | 
c1ccc(COc2ccc3c(c2)CCNCC3)cc1 | > 10000 |  |  | 
CN(C)CCCOc1ccc2c(c1)CCNCC2 | 100 |  |  | 
c1cc2c(cc1OCCCN1CCOCC1)CCNCC2 | 100 |  |  | 
OC1CCN(CCCOc2ccc3c(c2)CCNCC3)CC1 | > 10000 |  |  | 
c1ccc(COc2ccc3c(c2)CCN(C2CCCC2)CC3)cc1 | 0.794 | 19 | > 50 | IC50 (Cytochrome P450 2D6): 600 nM
CC(C)CN1CCc2ccc(OCc3ccccc3)cc2CC1 | 25.1 |  |  | 
CN1CCc2ccc(OCc3ccccc3)cc2CC1 | 316 |  |  | 
c1cc2c(cc1OCCCN1CCCCC1)CCNCC2 | 3.98 |  |  | Ki (Histamine H1 receptor): 1260 nM
c1cc2c(cc1OCCN1CCCCC1)CCNCC2 | 158 |  |  | 
c1ccc(COc2ccc3c(c2)CCN(C2CCC2)CC3)cc1 | 0.251 | 12 | > 50 | IC50 (Cytochrome P450 2D6): 600 nM
c1ccc(COc2ccc3c(c2)CCN(C2CC2)CC3)cc1 | 5.01 |  |  | 
CC(C)N1CCC(Oc2ccc3c(c2)CCNCC3)CC1 | 2.51 |  |  | Ki (Histamine H1 receptor): > 2510 nM
c1cc2c(cc1OCCCN1CCCCC1)CCNC2 | 2.51 |  |  | 
c1ccc(COc2ccc3c(c2)CCN(CC2CC2)CC3)cc1 | 10 | 11 | > 50 | Ki (Histamine H1 receptor): 1000 nM; IC50 (Cytochrome P450 2D6): 1500 nM
